Assay results: patent US10934253B2, “Therapeutic compounds and methods” (UNIVERSITY OF TASMANIA, priority 2017, dated 2021)

Tests used:
[1] = system: DSS-induced colitis in C57BL/6 mice; experiment: Dextran sulfate sodium (DSS) induced colitis mouse model; assay type: in vivo; settings: 2.5% DSS 7 days, 200 mg/kg orally in food once daily, vs DSS controls
Experimental: FIGS. 8-11: Ulcerative Colitis mouse model following treatment with representative compound of Formula (I) (UTA77); FIG. 8: Body weight loss; FIG. 9: Stool consistency; FIG. 10: Bloody stools; FIG. 11: Disease activity index. […] UTA77 was formulated with food powder (200 mg/kg of body weight) which was orally administered once daily over a period of 7 days.
Body weight (refer to FIG. 8), stool consistency (refer to FIG. 9), blood content of stools (refer to FIG. 10), and general disease activity index (refer to FIG. 11) were all assessed following treatment with representative compound of Formula (I), UTA77.
Female C57BL/6 mice were used at 7-8 weeks of age having an average body weight≈17 g. Mice were divided randomly into three different groups: • 1. a healthy control group without DSS, • 2. a control group with DSS, • 3. a group treated with DSS and test compound (n=5 per group).
Body weight of mice were assessed daily over an initial acclimation period of one week (FIG. 8). All mice were non-fasting and had access to food and drinking water (autoclaved tap water) ad libitum. Representative compounds of Formula (I) were formulated with food powder (200 mg/kg of body weight) to produce individual portions that were placed into the cage once a day. Representative compounds of Formula (I) (20 mg/ml) were stirred overnight at 4° C. in 500 ml 0.5% carboxymethylcellulose (CMC) solution. To 37.5 ml of the CMC solution, 41.25 g sucrose, 371.25 g food powder and 0.5% CMC solution were mixed to prepare a food mash, which was aliquoted (2.2 g portions) in weighting trays and individually stored at −20° C. Colitis was induced by supplementing 2.5% w/v of dextran sulphate sodium (DSS, MW=36,000-50,000, colitis grade, MP Biomedicals, USA) in the drinking water of mice from day 0 to day 7 (day of termination). On day 0, all mice were weighed and checked for stool consistency and occult blood before they were exposed to DSS and test compounds. Control animals were only supplied with autoclaved drinking water without DSS, and normal chow pellets, while 2.5% DSS in tap water was provided to the DSS-treated groups from day 0 to day 7. All controls groups were also supplied with 2.2 g of food mash without test compounds. The animals of the drug-treated groups received 200 mg/kg of test compounds in food mash with 2.5% of DSS in water from day 0 to day 7. Body weight (refer to FIG. 8), stool consistency (refer to FIG. 9), blood content of stools (refer to FIG. 10) were recorded daily. The Disease Activity Index (DAI) (FIG. 11) was calculated according to scoring Table 9 below. Each parameter was scored independently and all three parameters were added to calculate the DAI.

[2] = system: HepG2 cells; experiment: Cell viability in the presence of a mitochondrial inhibitor (rotenone 10 μM); assay type: cell-based; settings: Homo sapiens, HepG2, 48 h, read-out: CELL VIABILITY [%]
Experimental: Cytoprotection of HepG2 cells by naphthoquinones was quantified in the presence of the mitochondrial toxin, rotenone. Briefly, HepG2 cells were seeded in 96-well plates at 5000 cells/well in DMEM with 0.3 g/l glucose, 10% FBS and Penicillin-Streptomycin-Glutamine. After overnight incubation under standard conditions, cells were treated with the test compounds (10 μM) for 2 days before cells were challenged with 1 μM rotenone in the presence of 10 μM test compounds in Hank's balanced salt solution (HBSS) for 6 hours. This was followed by post-incubation for an additional 18 hours with only 10 μM test compounds in HBSS. For measurement of cell viability, cells were washed with 100 μL PBS twice and then lysed using 40 μL lysis solution (4 mM EDTA, 0.2% Triton X-100) for 5 min at room temperature (RT) on an orbital shaker at 200 rpm. Then 10 μL of the lysate was mixed with 90 μL of enzyme-substrate mixture (as described above) in a white 96 well plate and luminescence was measured immediately using a plate-reader (Fluoroscan Ascent, Thermo Scientific). The data is expressed as % viability compared to the untreated (no-rotenone) control.
The cytoprotective effects of representative compounds of Formula (I) were further examined in vitro in response to rotenone toxicity at (10 μM). […] Cells were treated with the representative compounds of Formula (I) compounds (10 μM) for 2 days before cells were challenged with 10 μM rotenone.
Vitamin K, Menadione and Idebenone were used as comparative controls.

SMILES: COc1ccc(CCNC(=O)CCCC2=C(C)C(=O)c3ccccc3C2=O)cc1OC [UTA #77, N-(3,4-dimethoxyphenethyl)-4-(3-methyl-1,4-naphthoquinone-2-yl)butanamide]
- Bloody stools (in words) [1]: reduction in bloody stools
- Body weight loss (in words) [1]: less weight loss than DSS controls
- Disease activity index (in words) [1]: reduced disease activity
- Stool consistency (in words) [1]: improved stools
- viability at 10 µM [2]: 95.9%
